Like-named read-outs stand apart in the source and are kept apart here.
What was measured:
HCC827 cells [1] = details: GEF 1 μM, SAV 2 nM or both
Experimental: (§1) All culture media were supplemented with FBS (10 %) and P/S (1 %), and the cells were grown at 37 °C in 5 % CO2.
(§2) The cells were treated with MTT and incubated for 2 h. The supernatants were removed, and the remaining formazan crystals were dissolved in DMSO before absorbance measurement at 570 nm using a Multiscan GO spectrophotometer (Thermo Fisher Scientific, Vantaa, Finland).

HCC827GR cells [2] = details: GEF 1 μM, SAV 2 nM or both
Experimental: as §1, §2

HaCaT cells = details: GEF 1 μM, SAV 2 nM or both
Experimental: as §1, §2

HCC827 cells [3] = experiment: Soft agar anchorage-independent growth, HCC827; format: cell-based, human; details: 2 weeks; GEF 1 μM, SAV 2 nM or both
Experimental: (§3) The anchorage-independent cell growth assay was performed in 6-well plates with dual agar layers containing 0.6 % agar (lower layer) and 0.3 % agar (upper layer) supplemented with BME, 2 mM L-glutamine, 5 μg/ml gentamicin, and 10 % FBS. After 2 weeks of incubation, the number of colonies was assessed using a microscope (Leica, Wetzlar, Germany), and the mean colony area was analyzed using i-Solution ^TM software (Vancouver, BC, Canada).

HCC827GR cells [4] = experiment: Soft agar anchorage-independent growth, HCC827GR; format: cell-based, human; details: 2 weeks; for colony number, Control % / colony size, Control %: GEF 1 μM, SAV 2 nM or both
Experimental: as §3

HCC827 cells [5] = experiment: MTT viability with Z-VAD-FMK, HCC827; format: cell-based, human
Experimental: as §1, §2

HCC827GR cells [6] = experiment: MTT viability with Z-VAD-FMK, HCC827GR; format: cell-based, human; details: Z-VAD-FMK 12 µM, 3 h; DBG 48 h
Experimental: as §1, §2

HCC827 cells [7] = experiment: MTT viability after NAC pretreatment, HCC827; format: cell-based, human; details: HCC827, NAC 4 mM
Experimental: as §1, §2

HCC827GR cells [8] = experiment: MTT viability after NAC pretreatment, HCC827GR; format: cell-based, human; details: HCC827GR, NAC 4 mM
Experimental: as §1, §2

p-EGFR = experiment: Immunoblot p-EGFR with NAC pretreatment, HCC827 and HCC827GR cells; format: cell-based, human; details: NAC 4 mM; for p-EGFR protein Ratio: control = 1.00
Experimental: (§4) HaCaT cells were grown in DMEM, whereas HCC827 and HCC827GR cells were grown in RPMI 1640. All culture media were supplemented with FBS (10 %) and P/S (1 %), and the cells were grown at 37 °C in 5 % CO2.
(§5) Cells were lysed in RIPA buffer, and protein concentration was determined using a Bio-Rad DC Protein Assay kit (Bio-Rad, Hercules, CA, USA). Protein samples from the cell lysates were resolved by sodium dodecyl sulfate-polyacrylamide gel electrophoresis and then transferred onto polyvinylidene fluoride membranes. The membranes were blocked with 3 % or 5 % skim milk and then incubated at 4 °C overnight with the indicated primary antibodies, followed by the corresponding horseradish peroxidase-conjugated secondary antibodies at RT for 2 h. Protein bands were visualized using western blotting luminol reagent solution and ImageQuant LAS 500 (GE Healthcare, Uppsala, Sweden). The density of the bands was quantified using ImageJ software (NIH, Bethesda, MD, USA).

p-MET = experiment: Immunoblot p-MET with NAC pretreatment, HCC827 and HCC827GR cells; format: cell-based, human; details: NAC 4 mM; for p-MET protein Ratio: control = 1.00
Experimental: as §4, §5

p-AKT = experiment: Immunoblot p-AKT with NAC pretreatment, HCC827 and HCC827GR cells; format: cell-based, human; details: NAC 4 mM; for p-AKT protein Ratio: control = 1.00
Experimental: as §4, §5

caspase-3 = experiment: Immunoblot caspase-3 with NAC pretreatment, HCC827 and HCC827GR cells; format: cell-based, human; details: for caspase3 protein/actin / caspase3 protein Ratio: NAC 4 mM; for caspase3 protein Ratio: control = 1.00
Experimental: as §4, §5

PARP = experiment: Immunoblot PARP with NAC pretreatment, HCC827 and HCC827GR cells; format: cell-based, human; details: for PARP protein/actin / PARP protein Ratio: NAC 4 mM; for PARP protein Ratio: control = 1.00
Experimental: as §4, §5

[9] = NAC 4 mM pretreatment, then DBG

With C[C@@H](c1ccc2nccn2c1)n1nnc2ncc(-c3cnn(C)c3)nc21 [SAV, savolitinib, reference compound] the cell viability (HCC827 cells [1]; 24 h, mean, n=3) was 95.55%, the cell viability (HCC827 cells [1]; 24 h, replicate 1) was 94.16% and the cell viability (HCC827 cells [1]; 24 h, replicate 2) was 96.61%. For the same compound, the cell viability (HCC827 cells [1]; 24 h, replicate 3) was 95.89%, the cell viability (HCC827 cells [1]; 48 h, mean, n=3) was 94.28% and the cell viability (HCC827 cells [1]; 48 h, replicate 1) was 94.71%. For the same compound, the cell viability (HCC827 cells [1]; 48 h, replicate 2) was 94.13%, the cell viability (HCC827 cells [1]; 48 h, replicate 3) was 94.00% and the cell viability (HCC827GR cells [2]; 24 h, mean, n=3) was 97.44%. It also gave a cell viability (HCC827GR cells [2]; 24 h, replicate 1) of 102.35%, a cell viability (HCC827GR cells [2]; 24 h, replicate 2) of 94.96% and a cell viability (HCC827GR cells [2]; 24 h, replicate 3) of 95.02%. For the same compound, the cell viability (HCC827GR cells [2]; 48 h, mean, n=3) was 94.70%, the cell viability (HCC827GR cells [2]; 48 h, replicate 1) was 91.23% and the cell viability (HCC827GR cells [2]; 48 h, replicate 2) was 97.86%. For the same compound, the cell viability (HCC827GR cells [2]; 48 h, replicate 3) was 95.02%, the cell viability (HaCaT cells; 24 h, mean, n=3) was 98.31% and the cell viability (HaCaT cells; 24 h, replicate 1) was 97.97%. It also gave a cell viability (HaCaT cells; 24 h, replicate 2) of 99.14%, a cell viability (HaCaT cells; 24 h, replicate 3) of 97.82% and a cell viability (HaCaT cells; 48 h, mean, n=3) of 95.26%. The cell viability (HaCaT cells; 48 h, replicate 1) was 95.75%, the cell viability (HaCaT cells; 48 h, replicate 2) was 95.82% and the cell viability (HaCaT cells; 48 h, replicate 3) was 94.21%. For the same compound, the “colony formation, in words” value (HCC827 cells [3]) was “did not significantly alter the colony size and count”, the “colony size, Control %” value (HCC827 cells [3]) was 94.26% and the “colony number, Control %” value (HCC827GR cells [4]) was 90.34%. The “colony size, Control %” value (HCC827GR cells [4]) was 125.91% and the “colony formation, in words” value (HCC827GR cells [4]; SAV 2 nM) was “did not significantly alter the colony size and count”.

For “Z-Val-Ala-Asp-(OMe)-fluoromethyl ketone [Z-VAD-FMK]”, the “DBG-mediated inhibition of viability with Z-VAD-FMK” value (HCC827 cells [5]; Z-VAD-FMK 12 µM, 3 h, DBG 48 h) was “significantly recovered”, the “DBG-induced apoptosis with Z-VAD-FMK” value (HCC827 cells [5]; Z-VAD-FMK pretreatment, cell line not specified (NSCLC cells)) was “prevented the DBG-induced apoptosis” and the “DBG-mediated inhibition of viability with Z-VAD-FMK” value (HCC827GR cells [6]) was “significantly recovered”.

COc1cc2ncnc(Nc3ccc(F)c(Cl)c3)c2cc1OCCCN1CCOCC1 [GEF, gefitinib, reference compound] showed a cell viability (HCC827GR cells [2]; 24 h, mean, n=3) of 102.64%, a cell viability (HCC827GR cells [2]; 24 h, replicate 1) of 103.39% and a cell viability (HCC827GR cells [2]; 24 h, replicate 2) of 100.47%. The cell viability (HCC827GR cells [2]; 24 h, replicate 3) was 104.06%, the cell viability (HCC827GR cells [2]; 48 h, mean, n=3) was 96.35% and the cell viability (HCC827GR cells [2]; 48 h, replicate 1) was 98.10%. For the same compound, the cell viability (HCC827GR cells [2]; 48 h, replicate 2) was 91.57%, the cell viability (HCC827GR cells [2]; 48 h, replicate 3) was 99.38% and the cell viability (HaCaT cells; 24 h, mean, n=3) was 65.33%. For the same compound, the cell viability (HaCaT cells; 24 h, replicate 1) was 65.07%, the cell viability (HaCaT cells; 24 h, replicate 2) was 64.14% and the cell viability (HaCaT cells; 24 h, replicate 3) was 66.80%. It also gave a cell viability (HaCaT cells; 48 h, mean, n=3) of 39.87%, a cell viability (HaCaT cells; 48 h, replicate 1) of 39.75% and a cell viability (HaCaT cells; 48 h, replicate 2) of 40.25%. The cell viability (HaCaT cells; 48 h, replicate 3) was 39.62%, the “colony number, Control %” value (HCC827GR cells [4]) was 84.14% and the “colony size, Control %” value (HCC827GR cells [4]) was 98.13%.

For CC(=O)N[C@@H](CS)C(=O)O [NAC, N-acetyl-L-cysteine, reference compound], the “cell viability (relative to untreated = 100.00)” value (HCC827 cells [7]; mean of 3) was 104.34, the “cell viability (relative to untreated = 100.00)” value (HCC827 cells [7]; replicate 1) was 105.47 and the “cell viability (relative to untreated = 100.00)” value (HCC827 cells [7]; replicate 2) was 103.68. The “cell viability (relative to untreated = 100.00)” value (HCC827 cells [7]; replicate 3) was 103.89, the “cell viability (relative to untreated = 100.00)” value (HCC827GR cells [8]; mean of 3) was 99.78 and the “cell viability (relative to untreated = 100.00)” value (HCC827GR cells [8]; replicate 1) was 99.39. For the same compound, the “cell viability (relative to untreated = 100.00)” value (HCC827GR cells [8]; replicate 2) was 100.59, the “cell viability (relative to untreated = 100.00)” value (HCC827GR cells [8]; replicate 3) was 99.36 and the p-EGFR protein/actin (p-EGFR; HCC827, control 0.90) was 0.68. For the same compound, the “p-EGFR protein Ratio” value (p-EGFR; HCC827) was 0.76, the p-EGFR protein/actin (p-EGFR; HCC827GR, control 0.93) was 0.93 and the “p-EGFR protein Ratio” value (p-EGFR; HCC827GR) was 1.00. For the same compound, the p-MET protein/actin (p-MET; HCC827, control 1.17) was 0.89, the “p-MET protein Ratio” value (p-MET; HCC827) was 0.76 and the p-MET protein/actin (p-MET; HCC827GR, control 1.14) was 1.03. For the same compound, the “p-MET protein Ratio” value (p-MET; HCC827GR) was 0.91, the p-AKT protein/actin (p-AKT; HCC827, control 1.00) was 0.79 and the “p-AKT protein Ratio” value (p-AKT; HCC827) was 0.79. The p-AKT protein/actin (p-AKT; HCC827GR, control 1.04) was 0.95, the “p-AKT protein Ratio” value (p-AKT; HCC827GR) was 0.92 and the caspase3 protein/actin (caspase-3; HCC827, control 0.39) was 0.48. For the same compound, the “caspase3 protein Ratio” value (caspase-3; HCC827) was 1.23, the caspase3 protein/actin (caspase-3; HCC827GR, control 0.59) was 0.90 and the “caspase3 protein Ratio” value (caspase-3; HCC827GR) was 1.54. For the same compound, the “cleaved caspase-3 level” value (caspase-3; [9]) was “significantly prevented the increase”, the PARP protein/actin (PARP; HCC827, control 0.96) was 1.00 and the “PARP protein Ratio” value (PARP; HCC827) was 1.04. The PARP protein/actin (PARP; HCC827GR, control 0.99) was 1.32, the “PARP protein Ratio” value (PARP; HCC827GR) was 1.33 and the “cleaved PARP level” value (PARP; [9]) was “significantly prevented the increase”.

— paper PMC11579512, “Deoxybouvardin-glucoside induces apoptosis in non-small cell lung cancer cells by targeting EGFR/MET and AKT signaling pathway” (EXCLI Journal, 2024)
